The values below come from ChEMBL document CHEMBL4261591, “Antimicrobial 1,3,4-trisubstituted-1,2,3-triazolium salts” (2018).

Assay type in all cases: functional
Experiment [1] concerns Staphylococcus epidermidis. Description: microbe, parasite or virus in culture. The settings on record: ATCC 14990, 24 h.
Description: Antibacterial activity against Staphylococcus epidermidis ATCC 14990 after 24 hrs by CLSI broth microdilution assay
Experiment [2] deals with Saccharomyces cerevisiae. Description: microbe, parasite or virus in culture. The settings on record: ATCC 9763, 24 h.
Description: Antifungal activity against Saccharomyces cerevisiae ATCC 9763 after 24 hrs by CLSI broth microdilution assay
The test system of experiment [3] is Bacillus subtilis. Briefly: microbe, parasite or virus in culture. The settings on record: ATCC 6051, 24 h.
Description: Antibacterial activity against Bacillus subtilis ATCC 6051 after 24 hrs by CLSI broth microdilution assay
For experiment [4], the system named is Escherichia coli. Briefly: microbe, parasite or virus in culture. The settings on record: ATCC 25922, 24 h.
Description: Antibacterial activity against Escherichia coli ATCC 25922 after 24 hrs by CLSI broth microdilution assay
The subject of experiment [5] is Klebsiella aerogenes. Briefly: microbe, parasite or virus in culture. As to conditions: ATCC 13048, 24 h.
Description: Antibacterial activity against Enterobacter aerogenes ATCC 13048 after 24 hrs by CLSI broth microdilution assay
For experiment [6], the system named is Candida albicans. Briefly: microbe, parasite or virus in culture. The settings on record: ATCC 90028, 24 h.
Description: Antifungal activity against Candida albicans ATCC 90028 after 24 hrs by CLSI broth microdilution assay
Experiment [7] in a line: Selectivity index, ratio of MIC for Escherichia coli ATCC 25922 to MIC for Staphylococcus epidermidis ATCC 14990.
Experiment [8] can be described thus: Selectivity index, ratio of MIC for Escherichia coli ATCC 25922 to MIC for Bacillus subtilis ATCC 6051.
Experiment [9] is described as follows: Selectivity index, ratio of MIC for Candida albicans ATCC 90028 to MIC for Staphylococcus epidermidis ATCC 14990.
Experiment [10] in a line: Selectivity index, ratio of MIC for Candida albicans ATCC 90028 to MIC for Bacillus subtilis ATCC 6051.
A short description of experiment [11]: Selectivity index, ratio of MIC for Enterobacter aerogenes ATCC 13048 to MIC for Bacillus subtilis ATCC 6051.
Experiment [12] in a line: Selectivity index, ratio of MIC for Enterobacter aerogenes ATCC 13048 to MIC for Staphylococcus epidermidis ATCC 14990.
The nature of experiment [13]: Selectivity index, ratio of MIC for Saccharomyces cerevisiae ATCC 9763 to MIC for Staphylococcus epidermidis ATCC 14990.
A short description of experiment [14]: Selectivity index, ratio of MIC for Saccharomyces cerevisiae ATCC 9763 to MIC for Bacillus subtilis ATCC 6051.

As for `CCCCCCCCCCCCc1cn(Cc2ccccc2)n[n+]1Cc1ccccc1`, the MIC in experiment [1] was found to be 4 µM; in experiment [2], 16 µM; in experiment [3], 2 µM; in experiment [4] it was 16 µM; in experiment [5] it was 16 µM; in [6], 16 µM.

As to `Cc1ccc(-n2cc(-c3ccccc3)[n+](Cc3ccccc3)n2)cc1`, the MIC in experiment [1], in [2], in [3], in experiment [4], in [5] and in [6] was above 250 µM in each case.

Regarding `Cc1ccc(-n2cc(-c3ccccc3)[n+](Cc3ccc(C(C)(C)C)cc3)n2)cc1`, the MIC was 8 µM in experiment [1]; above 250 µM in [2]; 8 µM in [3]; above 250 µM in experiment [4]; above 250 µM in [5]; above 250 µM in experiment [6].

Consider `Cc1ccc(-[n+]2nn(Cc3ccccc3)cc2-c2ccccc2)cc1`, for which the MIC in experiment [1], in experiment [2], in experiment [3], in [4], in experiment [5] and in experiment [6] was above 250 µM in each case.

Take `CCCCCCCCCCCCc1cn(-c2ccc(C)cc2)n[n+]1Cc1ccccc1`: the MIC in [1] amounted to 2 µM; in experiment [2], 8 µM; in [3], 1 µM; in experiment [4], 8 µM; in experiment [5] it was 8 µM; in [6] it was 8 µM.

`CCCCCCCCc1cn(Cc2ccccc2)n[n+]1Cc1ccccc1`: the MIC in experiment [1] is 8 µM; in experiment [2] it was 250 µM; in [3], 8 µM; in [4] it was above 250 µM; in experiment [5], above 250 µM; in experiment [6] it was 250 µM.

As to `CCCCCCCCc1cn(-c2ccc(C)cc2)n[n+]1Cc1ccccc1`, the Selectivity Index in [7], in [8], in [9], in experiment [10], in [11] and in experiment [12] was above 50 throughout. Further, the Selectivity Index in experiment [13] and in [14] was above 50 throughout. In addition, the MIC in [1] is 8 µM; in experiment [2] it was 250 µM; in experiment [3] it was 4 µM; in [4], above 250 µM; in experiment [5] it was above 250 µM; in [6], 250 µM.

For `CCCCc1cn(-c2ccc(C)cc2)n[n+]1Cc1ccc(C(C)(C)C)cc1`, the Selectivity Index in [7], in [8], in [9], in [10], in experiment [11] and in experiment [12] was above 50 throughout. Besides, the Selectivity Index in [13] and in experiment [14] was above 50 throughout. In addition, the MIC in experiment [1] is 4 µM; in experiment [2] it was 250 µM; in [3], 4 µM; in [4] it was 250 µM; in experiment [5] it was above 250 µM; in experiment [6] it was 250 µM.

Turning to `CCCCc1cn(Cc2ccccc2)n[n+]1Cc1ccccc1`, the MIC in experiment [1], in [2], in experiment [3], in [4], in experiment [5] and in [6] was above 250 µM throughout.

For the compound `CCCCc1cn(Cc2ccccc2)n[n+]1Cc1ccc(C(C)(C)C)cc1`, the MIC in experiment [1] is 8 µM; in experiment [2] it was 250 µM; in experiment [3], 8 µM; in [4] it was above 250 µM; in [5] it was above 250 µM; in [6], 250 µM.

In the case of `CCCCCCCCc1cn(-c2ccc(C)cc2)n[n+]1Cc1ccc(C(C)(C)C)cc1`, the MIC in experiment [1] came to 2 µM; in [2], 8 µM; in experiment [3], 2 µM; in experiment [4] it was 16 µM; in experiment [5], 16 µM; in experiment [6], 4 µM.

For the compound `CCCCc1cn(-c2ccc(C)cc2)n[n+]1Cc1ccccc1`, the MIC in experiment [1], in experiment [2], in experiment [3], in experiment [4], in [5] and in experiment [6] was above 250 µM each time.

For the compound `CCCCCCCCCCCCc1cn(Cc2ccccc2)n[n+]1Cc1ccc(C(C)(C)C)cc1`, the MIC in experiment [1] was determined as 2 µM; in experiment [2], 16 µM; in experiment [3], 2 µM; in experiment [4], 250 µM; in [5], 250 µM; in experiment [6] it was 8 µM.

For `CCCCCCCCCCCCc1cn(-c2ccc(C)cc2)n[n+]1Cc1ccc(C(C)(C)C)cc1`, the MIC in experiment [1] is 2 µM; in [2] it was 4 µM; in experiment [3], 2 µM; in [4], 250 µM; in [5], 250 µM; in experiment [6], 4 µM.

Regarding `CCCCCCCCc1cn(Cc2ccccc2)n[n+]1Cc1ccc(C(C)(C)C)cc1`, the MIC in experiment [1] came out at 2 µM; in [2], 16 µM; in [3] it was 1 µM; in experiment [4] it was 31 µM; in experiment [5] it was 31 µM; in [6], 8 µM.

With `Cc1ccc(-[n+]2nn(Cc3ccc(C(C)(C)C)cc3)cc2-c2ccccc2)cc1`, the MIC in [1] is 16 µM; in experiment [2], above 250 µM; in experiment [3], 16 µM; in experiment [4], above 250 µM; in experiment [5], above 250 µM; in [6] it was above 250 µM.
